The source of these data is patent publication US20250281649A1, “PROBE DIRECTED TO ENZYME ALDH1A3 AND USE THEREOF IN THE DIAGNOSIS OF GLIOBLASTOMA” (Universita' Degli Studi Del Piemonte Orientale "A. Avogadro", priority 2021, published 2025).

Common to all, as to assay: IC50 evaluation, NADH formation at 340 nm (Tecan SUNRISE)
What all share (type): biochemical

One experiment concerns the target T1, ALDH1A1 (Homo sapiens, UniProt P00352).
T1 construct: His-tag; made in house; host or cells: bacterial cells
T1 sequence (P00352 1-501): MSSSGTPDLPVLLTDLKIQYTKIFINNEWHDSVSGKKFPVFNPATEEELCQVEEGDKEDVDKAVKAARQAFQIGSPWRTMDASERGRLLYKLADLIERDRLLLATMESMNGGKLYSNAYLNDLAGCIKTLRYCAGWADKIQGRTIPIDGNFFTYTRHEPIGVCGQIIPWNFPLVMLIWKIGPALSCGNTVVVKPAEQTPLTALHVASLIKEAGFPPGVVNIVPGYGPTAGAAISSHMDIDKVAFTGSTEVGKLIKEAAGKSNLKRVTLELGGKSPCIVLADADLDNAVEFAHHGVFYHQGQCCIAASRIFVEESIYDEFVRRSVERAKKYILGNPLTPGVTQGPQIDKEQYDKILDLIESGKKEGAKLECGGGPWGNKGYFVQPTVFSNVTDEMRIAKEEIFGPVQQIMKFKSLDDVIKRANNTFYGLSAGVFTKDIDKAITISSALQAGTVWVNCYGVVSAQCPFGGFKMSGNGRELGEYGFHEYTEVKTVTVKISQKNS
Conditions: ALDH1A1; 20 mM acetaldehyde, 500 μM NAD+, 15% DMSO, 2.7 μM isoenzyme; read-out: IC50. As for the experimental part: (§1) A common protocol to express and purify all three members of the ALDHIA subfamily has been optimized. Briefly, induced cells, collected by centrifugation, were re-suspended in an appropriate volume of lysis buffer (50 mM Na2HPO4, 300 mM NaCl, 1 mM β-mercaptoethanol, 20 mM imidazole, pH 7.5) added of benzonase nuclease (250 U/μL) and Protease inhibitor cocktail from SIGMA. After ultracentrifugation, the clarified sample was purified by a His-tag affinity chromatography followed by size-exclusion chromatography, using an AKTA FPLC system, at 4° C. To evaluate the purity and homogeneity of the protein, after each purification step, eluted d fractions were analyzed by SDS-PAGE and the protein quantification was always determined by Bradford protein assay.
(§2) IC50 evaluation: on a Tecan—SUNRISE, probe 13 was tested in a serial dilution series from 200 μM to 3, 125 μM, against all the three isoenzymes. The recipe of reaction buffer was: 20 mM Tris HCl pH=8, 150 mM KCl, 1 mM B-mercaptoethanol, 500 μM NAD^+, 15% DMSO fixed, 20 mM acetaldehyde and 2.7 μM each isoenzyme. The analysis was conducted measuring the NADH formation, that has a specific absorbance wavelength (340 nm). The test was performed in triplicate with all the three isoenzymes.

The target of a further experiment is T2, ALDH1A2 (Homo sapiens, UniProt O94788).
T2 construct: His-tag; made in house; host or cells: bacterial cells
T2 sequence (O94788 1-518): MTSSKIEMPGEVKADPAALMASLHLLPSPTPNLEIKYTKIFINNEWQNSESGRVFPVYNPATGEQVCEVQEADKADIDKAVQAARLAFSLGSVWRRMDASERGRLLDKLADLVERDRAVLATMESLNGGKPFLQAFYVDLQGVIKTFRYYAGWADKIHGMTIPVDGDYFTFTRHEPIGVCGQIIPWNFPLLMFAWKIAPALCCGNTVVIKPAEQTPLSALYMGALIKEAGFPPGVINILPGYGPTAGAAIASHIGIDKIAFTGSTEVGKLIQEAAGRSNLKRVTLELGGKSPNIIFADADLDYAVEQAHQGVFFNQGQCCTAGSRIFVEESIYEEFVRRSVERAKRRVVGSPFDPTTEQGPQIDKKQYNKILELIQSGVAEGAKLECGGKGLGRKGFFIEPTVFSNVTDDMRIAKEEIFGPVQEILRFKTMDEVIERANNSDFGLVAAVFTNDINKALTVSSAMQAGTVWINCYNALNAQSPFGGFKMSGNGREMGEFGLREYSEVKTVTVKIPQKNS
The note with it: 20 mM acetaldehyde, 500 μM NAD+, 15% DMSO, 2.7 μM isoenzyme, read-out: IC50. As for the experimental part: as §1, §2

The target in a further experiment is T3, ALDH1A3 (Homo sapiens, UniProt P47895).
T3 construct: His-tag; made in house; host or cells: bacterial cells
T3 sequence (P47895 1-512): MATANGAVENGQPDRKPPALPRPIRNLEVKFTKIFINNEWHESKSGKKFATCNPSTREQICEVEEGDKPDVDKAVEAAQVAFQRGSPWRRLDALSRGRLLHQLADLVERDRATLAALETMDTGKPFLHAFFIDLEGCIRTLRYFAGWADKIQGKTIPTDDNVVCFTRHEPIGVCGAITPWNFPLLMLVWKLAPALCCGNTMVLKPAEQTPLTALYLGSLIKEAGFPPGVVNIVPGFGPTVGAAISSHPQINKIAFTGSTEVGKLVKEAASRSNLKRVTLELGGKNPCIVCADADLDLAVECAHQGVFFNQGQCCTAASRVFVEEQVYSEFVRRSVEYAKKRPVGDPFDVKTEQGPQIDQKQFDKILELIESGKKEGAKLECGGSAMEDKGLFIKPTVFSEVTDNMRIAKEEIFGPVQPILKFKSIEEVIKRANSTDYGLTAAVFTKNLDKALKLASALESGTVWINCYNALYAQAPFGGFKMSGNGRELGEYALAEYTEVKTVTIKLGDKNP
The note with it: ALDH1A3; 20 mM acetaldehyde, 500 μM NAD+, 15% DMSO, 2.7 μM isoenzyme; read-out: IC50. As for the experimental part:
as §1, §2

On to `COc1cc(/C=C/C(=O)/C=C(O)/C=C/c2ccc(OCc3cn(CCOc4ccc(C=O)cc4)nn3)c(OC)c2)ccc1O` [Compound 13], for which the results for the half-maximal inhibitory concentration (IC50) on ALDH1A1, at ALDH1A2 and at ALDH1A3 were 196 µM, 131 µM and 1.5 µM, respectively.
Take `CCOC(=O)Cn1cc(COc2ccc(/C=C/C(O)=C/C(=O)/C=C/c3ccc(O)c(OC)c3)cc2OC)nn1` [Compound 14]: the concentration for half-maximal inhibition (IC50) stood at 114 µM at ALDH1A1, 92.8 µM on ALDH1A2 and 14.5 µM on ALDH1A3.

One may read the IC50 as the concentration that inhibits the measured activity by half.
